Values after ≈ are worked out from the molar mass of the structure shown. Where two headings read alike, the source gives them in different places.

Type in all cases: cell-based
In assay [1] the test system is Propionibacterium acnes SW101T. As to the kind of experiment: MIC by anaerobic broth microdilution (WCB, NCCLS). The note with it: code K: Propionibacterium acnes SW101T, 35-37° C., 48 h. On the procedure:
(§1) MIC values towards strains of propionibacteria were obtained by broth microdilution using WCB (Anaerobe Broth MIC, Difco) according to NCCLS guidelines (National Committee for Clinical Laboratory Standards. Methods for anti-microbial susceptibility testing of anaerobic bacteria, 5th ed.; approved standard. NCCLS publication no. M11-A5. NCCLS, Wayne, Pa., 2001). Microtitre plates were loaded into 7-L GENbox anaerobic incubation jars (BioMérieux, cat. no. 96 128) fitted with anaerobic atmosphere generators (BioMérieux, cat. no. 96 124) and a Dry Anaerobic Indicator Strip (BBL, cat. no. 271051). Under these conditions, an O2 concentration <0.1% was achieved by 2.5 h, and a CO2 concentration >15% by 24 h. MIC values were read after incubation at 35-37° C. for 48 h (Table 3).
For orientation: Dilution methods test growth across graded concentrations, often in twofold steps.

For assay [2], the system named is Propionibacterium acnes EG7NS. Put plainly: MIC by anaerobic broth microdilution (WCB, NCCLS). The following applies: code I: Propionibacterium acnes EG7NS, anaerobic, 35-37° C., 48 h. How it is done: as §1
Assay [3] concerns Escherichia coli ATCC 25922. Put plainly: MIC by broth microdilution (CAMHB, NCCLS). The following applies: code C: Escherichia coli ATCC 25922. How it is done: (§2) MIC values for non-anaerobes were obtained by broth microdilution using CAMHB (BBL) according to NCCLS guidelines (National Committee for Clinical Laboratory Standards. Methods for dilution antimicrobial susceptibility tests for bacteria that grow aerobically, 5th ed. Approved standard M7-A6. NCCLS, Wayne, Pa., 2003). Drugs were dissolved in DMSO prior to dispensing into 96-well microtitre plates; the concentration of DMSO in assay wells never exceeded 2% (v/v). CAMHB was supplemented with 5% (v/v) horse serum (Sigma, cat. no. H-1270) in lieu of laked horse blood for cultivation of Streptococcus pneumoniae, and with 5% (v/v) Fildes enrichment (BBL, cat. no. 220810) supernate in lieu of Haemophilus Test Medium and additives for cultivation of Haemophilus influenzae (Pankuch G A, Hoellman D B, Lin G, Bajaksouzian S, Jacobs M R, Appelbaum P C. Activity of HMR 3647 compared to those of five agents against Haemophilus influenzae and Moraxella catarrhalis by MIC determination and time-kill assay. Antimicrob. Agents Chemother. November 1998; 42(11): 3032-4). Activities expressed as the minimal inhibitory concentrations (MICs) (μg/ml) are given in the following Table 3, and the microorganisms used for testing are listed in Table 2 below.

Assay [4] has as its system Staphylococcus aureus 1086. Put plainly: MIC by broth microdilution (CAMHB, NCCLS). The following applies: code B: Staphylococcus aureus 1086. How it is done: as §2
For assay [5], the system named is Staphylococcus aureus ATCC 29213. Put plainly: MIC by broth microdilution (CAMHB, NCCLS). The following applies: code A: Staphylococcus aureus ATCC 29213. On the procedure: as §2
Assay [6] concerns Haemophilus influenzae 12214. As to the kind of experiment: MIC by broth microdilution (CAMHB + 5% Fildes enrichment, NCCLS). The following applies: code G: Haemophilus influenzae 12214. How it is done:
as §2

Assay [7] concerns Haemophilus influenzae QK50. The assay is described as above. The note with it: code H: Haemophilus influenzae QK50. How it is done:
as §2

Assay [8] relates to Streptococcus pneumoniae Tupelo. As to the kind of experiment: MIC by broth microdilution (CAMHB + 5% horse serum, NCCLS). The following applies: code F: Streptococcus pneumoniae Tupelo. How it is done:
as §2

In assay [9] the test system is Streptococcus pneumoniae SL199T. The assay is described as above. The note with it: code E: Streptococcus pneumoniae SL199T. On the procedure: as §2
Assay [10] deals with Streptococcus pneumoniae 1/1. Described as above. The following applies: code D: Streptococcus pneumoniae 1/1. On the procedure:
as §2

[11] abbreviates: Cutibacterium acnes, read-out: MIC.

With `CCC[C@@H]1C[C@@H](C(=O)N[C@@H]([C@H]2O[C@H](SC)[C@H](O)[C@@H](O)[C@H]2O)[C@H](C)Cl)N(C)C1` [Clindamycin, reference compound], the values for the MIC in assay [1] (setting [11]) and in assay [2] (setting [11]) were greater than 32 µg/mL and no more than 0.06 µg/mL, respectively.
With `CC[C@H]1OC(=O)[C@H](C)[C@@H](O[C@H]2C[C@@](C)(OC)[C@@H](O)[C@H](C)O2)[C@H](C)[C@@H](O[C@@H]2O[C@H](C)C[C@H](N(C)C)[C@H]2O)[C@](C)(OC)C[C@@H](C)C(=O)[C@H](C)[C@H]2[C@H](SCCOCn3cnc4cccnc43)C(=O)O[C@@]21C` [Example 2], the MIC in [3] was greater than 32 µg/mL; in [4], 8 µg/mL (≈ 8.17 µM); in assay [5] it was 2 µg/mL (≈ 2.04 µM); in assay [6], 4 µg/mL; in assay [7], 8 µg/mL; in [1], 16 µg/mL (≈ 16.3 µM). The MIC entry in [2] is “<=0.06 μg/ml”; in assay [8], 0.5 µg/mL; in assay [9], 0.5 µg/mL; in assay [10], “<=0.06 μg/ml”.
For the compound `CC[C@H]1OC(=O)[C@H](C)[C@@H](O[C@H]2C[C@@](C)(OC)[C@@H](O)[C@H](C)O2)[C@H](C)[C@@H](O[C@@H]2O[C@H](C)C[C@H](N(C)C)[C@H]2O)[C@](C)(OC)C[C@@H](C)C(=O)[C@H](C)[C@H]2[C@H](SCCCc3ccc4ncccc4c3)C(=O)O[C@@]21C` [Example 3], the MIC in [3] was greater than 32 µg/mL; in [4], 8 µg/mL (≈ 8.22 µM); in assay [5] it was 4 µg/mL (≈ 4.11 µM); in assay [6], greater than 32 µg/mL; in assay [7] it was 16 µg/mL; in assay [1], 16 µg/mL (≈ 16.4 µM). The MIC in assay [2] stood at 0.25 µg/mL (≈ 0.257 µM); in assay [8], 8 µg/mL; in assay [9] it was 2 µg/mL; in assay [10], 0.25 µg/mL.
In the case of `CC[C@H]1OC(=O)[C@H](C)[C@@H](O[C@H]2C[C@@](C)(OC)[C@@H](O)[C@H](C)O2)[C@H](C)[C@@H](O[C@@H]2O[C@H](C)C[C@H](N(C)C)[C@H]2O)[C@](C)(OC)C[C@@H](C)C(=O)[C@H](C)[C@H]2[C@H](SCCCN3C(=O)c4cccnc4C3=O)C(=O)O[C@@]21C` [Example 5], the MIC in assay [3] was greater than 32 µg/mL; in assay [4], greater than 32 µg/mL; in assay [5], 2 µg/mL (≈ 2.02 µM); in [6], 8 µg/mL; in [7], 8 µg/mL; in assay [1], 16 µg/mL (≈ 16.1 µM). For the same compound, the MIC result is “<=0.06 μg/ml” in assay [2], 16 µg/mL in assay [8], 8 µg/mL in [9] and “<=0.06 μg/ml” in assay [10].
As for `CC[C@H]1OC(=O)[C@H](C)[C@@H](O[C@H]2C[C@@](C)(OC)[C@@H](O)[C@H](C)O2)[C@H](C)[C@@H](O[C@@H]2O[C@H](C)C[C@H](N(C)C)[C@H]2O)[C@](C)(OC)C[C@@H](C)C(=O)[C@H](C)[C@H]2[C@H](SCC(=O)NCc3ccccn3)C(=O)O[C@@]21C` [Example 6], the MIC result in [3] was “>=32 μg/ml”; in [4], greater than 32 µg/mL; in [5], 0.5 µg/mL (≈ 0.525 µM); in assay [6], 2 µg/mL; in assay [7], 2 µg/mL; in assay [1], greater than 32 µg/mL. For the same compound, the MIC result in [2] was “<=0.06 μg/ml”; in assay [8], 2 µg/mL; in assay [9], 1 µg/mL; in assay [10], “<=0.06 μg/ml”.
Regarding `CC[C@H]1OC(=O)[C@H](C)[C@@H](O[C@H]2C[C@@](C)(OC)[C@@H](O)[C@H](C)O2)[C@H](C)[C@@H](O[C@@H]2O[C@H](C)C[C@H](N(C)C)[C@H]2O)[C@](C)(OC)C[C@@H](C)C(=O)[C@H](C)[C@H]2[C@H](S(=O)(=O)CCn3cnc4c(N)ncnc43)C(=O)O[C@@]21C` [Example 7], the MIC in assay [3] was greater than 32 µg/mL; in assay [4], greater than 32 µg/mL; in assay [5], 32 µg/mL (≈ 32.1 µM); in [6], greater than 32 µg/mL; in assay [7], greater than 32 µg/mL; in [1], 8 µg/mL (≈ 8.02 µM). Besides, the MIC in assay [2] is 2 µg/mL (≈ 2.01 µM); in assay [8], 16 µg/mL; in assay [9], 4 µg/mL; in assay [10] it was 2 µg/mL.
Take `CC[C@H]1OC(=O)[C@H](C)[C@@H](O[C@H]2C[C@@](C)(OC)[C@@H](O)[C@H](C)O2)[C@H](C)[C@@H](O[C@@H]2O[C@H](C)C[C@H](N(C)C)[C@H]2O)[C@](C)(OC)C[C@@H](C)C(=O)[C@H](C)[C@H]2[C@H](SCCNc3ncnc4[nH]cnc34)C(=O)O[C@@]21C` [Example 9]: the MIC in [3] is greater than 32 µg/mL; in [4], greater than 32 µg/mL; in assay [5] it was 4 µg/mL (≈ 4.14 µM); in assay [6] it was 2 µg/mL; in [7], 2 µg/mL; in assay [1], 4 µg/mL (≈ 4.14 µM). Further, the MIC in assay [2] was 0.125 µg/mL (≈ 0.13 µM); in [8], 1 µg/mL; in assay [9] it was 0.25 µg/mL; in [10] it was “<=0.06 μg/ml”.
With `CC[C@H]1OC(=O)[C@H](C)[C@@H](O[C@H]2C[C@@](C)(OC)[C@@H](O)[C@H](C)O2)[C@H](C)[C@@H](O[C@@H]2O[C@H](C)C[C@H](N(C)C)[C@H]2O)[C@](C)(OC)C[C@@H](C)C(=O)[C@H](C)[C@H]2[C@H](SCCCn3cnc4cccnc43)C(=O)O[C@@]21C` [Example 12], the MIC in [3] was greater than 32 µg/mL; in assay [4], 8 µg/mL (≈ 8.31 µM); in [5], 2 µg/mL (≈ 2.08 µM); in assay [6] it was 4 µg/mL; in assay [7], 8 µg/mL; in assay [1] it was 8 µg/mL (≈ 8.31 µM). The MIC entry in assay [2] is “<=0.06 μg/ml”; in assay [8], 1 µg/mL; in assay [9], 0.5 µg/mL; in assay [10], “<=0.06 μg/ml”.
Take `CC[C@H]1OC(=O)[C@H](C)[C@@H](O[C@H]2C[C@@](C)(OC)[C@@H](O)[C@H](C)O2)[C@H](C)[C@@H](O[C@@H]2O[C@H](C)C[C@H](N(C)C)[C@H]2O)[C@](C)(OC)C[C@@H](C)C(=O)[C@H](C)[C@H]2[C@H](SCCn3ncc4c(N)ncnc43)C(=O)O[C@@]21C` [Example 13]: the MIC entry is “>=32 μg/ml” in assay [3]; 16 µg/mL (≈ 16.6 µM) in assay [4]; 2 µg/mL (≈ 2.07 µM) in assay [5]; 4 µg/mL in assay [6]; 4 µg/mL in assay [7]; 2 µg/mL (≈ 2.07 µM) in assay [1]. Besides, the MIC entry in assay [2] was “<=0.06 μg/ml”; in [8], 0.25 µg/mL; in assay [9], 0.125 µg/mL; in assay [10] it was “<=0.06 μg/ml”.
For the compound `CC[C@H]1OC(=O)[C@H](C)[C@@H](O[C@H]2C[C@@](C)(OC)[C@@H](O)[C@H](C)O2)[C@H](C)[C@@H](O[C@@H]2O[C@H](C)C[C@H](N(C)C)[C@H]2O)[C@](C)(OC)C[C@@H](C)C(=O)[C@H](C)[C@H]2[C@H](SCCN(C)CCn3cnc4c(N)ncnc43)C(=O)O[C@@]21C` [Example 14], the MIC was greater than 32 µg/mL in [3]; 16 µg/mL (≈ 15.7 µM) in assay [4]; 2 µg/mL (≈ 1.96 µM) in assay [5]; 8 µg/mL in [6]; 8 µg/mL in [7]; 16 µg/mL (≈ 15.7 µM) in assay [1]. For the same compound, the MIC result in [2] is “<=0.06 μg/ml”; in assay [8], 1 µg/mL; in [9] it was 0.5 µg/mL; in assay [10], “<=0.06 μg/ml”.
On to `CN(C)[C@@H]1C(O)=C(C(N)=O)C(=O)[C@@]2(O)C(O)=C3C(=O)c4c(O)cccc4[C@@](C)(O)[C@H]3C[C@@H]12` [Tetracycline, reference compound], for which the MIC in [1] (setting [11]) is 32 µg/mL (≈ 72 µM); in [2] (setting [11]) it was no more than 0.06 µg/mL.
